Tested on: L. donovani intracellular amastigotes in B10R cells
Assay: UCSD L. donovani infection assay (Assay Conditions D)
Format: cell-based
Details: B10R cells
Experimental: (§1) Assay Conditions D: B10R cells (CVCL_0155) were seeded at 300 cells/well, and L. donovani WT promastigotes in stationary phase (7th day after passage) were added at 6,000 parasites/well (ratio of 20 parasites/cell). Both cells and parasites were seeded in DMEM High-Glucose medium (Gibco, cat. no. 11995065) containing 5% Fetal Bovine Serum (Sigma-Aldrich, cat. no. F2442) and 1% Penicillin-Streptomycin (Gibco, cat. no. 15140122). Cells and parasites were incubated in the presence of the compounds for 72 h at 37° C. and 5% C02. Plates were then fixed with 4% formaldehyde solution for at least 1 h, then washed with 1×PBS and stained with 5 μg/mL DAPI. Plates were read using an ImageXpress microscope (Molecular Devices) and analyzed by MetaXpress software (Molecular Devices) using a custom module optimized for this assay. […] Compounds were tested in a 10-point 2-fold serial dilution in 3 technical replicates, and 2 biological replicates. After 72 h, plates were fixed and stained with DAPI as described above. Images were acquired on an ImageXpress microscope, and analyzed using the MetaXpress custom module.
as §1, with “Compounds were obtained as 0.2 μmoles of dried film for primary single point screening. Each compound was diluted in DMSO to 10 μM final testing concentration. These compounds were tested in 2 biological replicates. The compounds were pre-spotted onto 384-well assay plates in single concentration.” for “Assay Conditions D:”, “CO2.” for “C02.”, “module. The DRCs were plotted, half-effective concentration (EC50) and half-cytotoxic concentration (CC50) were calculated using GraphPad Prism Software, version 6.05 (GraphPad Software, San Diego, CA).” for “module.”

SMILES	L. donovani amastigotes EC75 (μM, B10R cells) [µM]
Cc1cc(N2C(=O)c3[nH]nc(CC(C)C)c3C2c2ccc(F)cc2Br)ccn1 (centres unmarked) [BUCMD00643]	1.2
Cc1cc(Br)cnc1N1C(=O)c2[nH]nc(CC(C)C)c2C1c1ccc(F)cc1 (centres unmarked) [BUCMD00167]	>10
COc1cc(C2c3c(CC(C)C)n[nH]c3C(=O)N2c2cc(C3CC3)[nH]n2)cc(OC)c1Br (centres unmarked) [BUCMD00195]	>10
CC(C)Cc1n[nH]c2c1C(c1ccc(Cl)cc1F)N(c1ccn(C)n1)C2=O (centres unmarked) [BUCMD00655]	>10
CC(C)Cc1n[nH]c2c1C(c1cccs1)N(c1ccc3ncnn3c1)C2=O (centres unmarked) [BUCMD00158]	>10
CC(C)Cc1n[nH]c2c1C(c1sccc1Br)N(c1ccn(C)n1)C2=O (centres unmarked) [BUCMD00662]	>10
C#CCCCCOc1ccc(N2C(=O)c3[nH]nc(CC(C)C)c3C2c2ccc(F)cc2)cn1 (centres unmarked) [BUCMD00739]	>10
CCc1ccc(C2c3c(CC(C)C)n[nH]c3C(=O)N2c2ccc(F)c(OC)c2)cn1 (centres unmarked) [BUCMD00178]	>10
CC(C)Cc1n[nH]c2c1C(c1ccc(F)cc1Cl)N(c1ccn(C)n1)C2=O (centres unmarked) [BUCMD00654]	>10
COc1cc(N2C(=O)c3[nH]nc(CC(C)C)c3C2c2ccc(F)cc2C)ccn1 (centres unmarked) [BUCMD00186]	>10
CC(C)Cc1n[nH]c2c1C(c1ccccc1Cl)N(c1ccn(C)n1)C2=O (centres unmarked) [BUCMD00656]	>10
COc1cc(N2C(=O)c3[nH]nc(CC(C)C)c3C2c2ccc(F)cc2F)ccn1 (centres unmarked) [BUCMD00188]	>10
CC(C)Cc1n[nH]c2c1C(c1ccc(F)cc1)N(c1cc(C3CC3)[nH]n1)C2=O (centres unmarked) [BUCMD00170]	>10
Cc1ccc(N2C(=O)c3[nH]nc(CC(C)C)c3C2c2ccc(F)cc2F)cn1 (centres unmarked) [BUCMD00630]	7.3
COc1ccc(OC)c(C2c3c(CC(C)C)n[nH]c3C(=O)N2c2ccc(C)cn2)c1 (centres unmarked) [BUCMD00198]	>10
CCn1cc(N2C(=O)c3[nH]nc(CC(C)C)c3C2c2ccc(F)cc2Cl)cn1 (centres unmarked) [BUCMD00665]	>10
COc1cc(C2c3c(CC(C)C)n[nH]c3C(=O)N2c2cc(C)nn2C)cc(OC)c1Br (centres unmarked) [BUCMD00194]	>10
COc1cccc(C2c3c(CC(C)C)n[nH]c3C(=O)N2c2ccc3ncnn3c2)c1 (centres unmarked) [BUCMD00159]	>10
COc1cc(N2C(=O)c3[nH]nc(CC(C)C)c3C2c2cc(Br)ccc2F)ccn1 (centres unmarked) [BUCMD00187]	>10
COc1cc(OC)cc(N2C(=O)c3[nH]nc(CC(C)C)c3C2c2cncc(Br)c2)c1 (centres unmarked) [BUCMD00184]	>10
COc1cc(N2C(=O)c3[nH]nc(CC(C)C)c3C2c2ccc(F)cc2)ccc1Br (centres unmarked) [BUCMD00164]	>10
Cc1ccsc1C1c2c(CC(C)C)n[nH]c2C(=O)N1c1cnn(C(C)C)c1 (centres unmarked) [BUCMD00680]	>10
Cc1ccc(N2C(=O)c3[nH]nc(CC(C)C)c3C2c2ccc(F)cc2Br)cn1 (centres unmarked) [BUCMD00629]	1.0
CC(C)Cc1n[nH]c2c1C(c1ccccc1Cl)N(c1cncc(F)c1)C2=O (centres unmarked) [BUCMD00696]	>10
CCn1cc(N2C(=O)c3[nH]nc(CC(C)C)c3C2c2ccc(Cl)cc2F)cn1 (centres unmarked) [BUCMD00666]	>10
Cc1ccsc1C1c2c(CC(C)C)n[nH]c2C(=O)N1c1ccn(C)n1 (centres unmarked) [BUCMD00660]	>10

Source: US20230381142A1, “ANTILEISHMANIAL COMPOUNDS, COMPOSITIONS AND USE THEREOF” (TRUSTEES OF BOSTON UNIVERSITY, priority 2022, published 2023)
